Data published in US11579141B2, “Methods for identifying a non-healing skin wound and for monitoring the healing of a skin wound” (AKRIBES BIOMEDICAL GMBH, priority 2016, dated 2023).

Key:
[1] = test system: primary human dermal fibroblasts (HDF); test: Primary human dermal fibroblast (HDF) proliferation assay (2D), SRB staining; type: cell-based
Description: Primary human dermal fibroblasts (HDF) were purchased from CELLnTEC, Bern. They were routinely grown in Dulbecco's modified Eagle's medium (DMEM) containing 10% FCS, 2 mM glutamine, and 100 U/ml penicillin/100 μg/ml streptomycin. Media, antibiotics, and glutamine were bought from Lonza. The cells were used at passage 10. Cells were trypsinized and seeded at 5000 cells/well in 200 μl into the inner wells of 96-well plates. The outer wells were loaded with sterile water. The cells were allowed to adhere overnight and then incubated for 72 hours at 37° C. under the following conditions: graded compound concentrations or 20 ng/ml PDGF-BB (Tonbo Biosciences # TO-21-8501-U010) in the absence or presence of different dilutions of sterile-filtered WE in medium. For negative control samples, 200 μl medium was added instead of specific stimuli. Alternatively, the cells were seeded into 384-well plates at 2500 cells/well together with test compounds or growth factors and WE or medium in a total volume of 50 μl. […]
Total cellular protein was determined as a measure of cell number by staining the fixed cells with sulforhodamine B (SRB, Sigma). […] After drying, the dye was eluted with 10 mM Tris.HCl, pH8.5, and absorbance was measured either at 550 or 492 nm for lower and higher cell densities, respectively. The average absorbance of the sample representing the day 1 starting cell number (for 96-well plates) was subtracted from the absorbance values of the WE-treated cells.
All experiments were carried out in triplicate for each sample and concentration, and means±standard deviation (SD) were used for the evaluation of the experiment. Results are expressed as percentage of control values for unstimulated cells.
For screening with WE, compound results were calculated as % proliferation of untreated and unstimulated control (=100%), and the cut-off for a positive hit was defined as % average proliferationWE+3*standard deviation, as shown in FIG. 5.

chronic wounds = conditions: non-steroidal anti-inflammatory drug; cited from earlier work

CNC(=O)[C@H](Cc1c[nH]c2ccccc12)NC(=O)[C@@H](CC(=O)NO)CC(C)C [GM6001]
effect on the effect of wound exudate on HDF proliferation ([1]; in presence of WE #49 (highest MMP activity), FIG. 22): partially reverses | effect on HDF proliferation ([1]; medium or WE without MMP activity, FIG. 22): no effect

CC(C)Cc1ccc(C(C)C(=O)O)cc1 (stereo not shown) [ibuprofen]
effectiveness in wounds (chronic wounds): only effective in ameliorating wound pain

PDGF
effect on the growth inhibitory effect of wound exudate in 2D fibroblast proliferation ([1]; in presence of aggressive, non-healing WE #49, FIG. 21): only partially reverses
